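All cell lines were grown in 96-well plates and treated with compound for 48 hours. GI50 is the concentration that inhibits growth by half. At the TGI there is no net growth.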
Key:
Test in all cases: DTP human tumour cell line panel, 48 h
RXF 393 renal = test system: RXF 393 renal
HCC-2998 colon = test system: HCC-2998 colon
A549 NSCLC = test system: A549 NSCLC
LOX IMVI melanoma = test system: LOX IMVI melanoma
IGROV1 ovarian = test system: IGROV1 ovarian
M19-MEL melanoma = test system: M19-MEL melanoma
KM20L2 colon = test system: KM20L2 colon
DMS 114 small cell lung = test system: DMS 114 small cell lung
SNB-78 CNS = test system: SNB-78 CNS
DMS 273 small cell lung = test system: DMS 273 small cell lung
LXFL 529 NSCLC = test system: LXFL 529 NSCLC
DLD-1 colon = test system: DLD-1 colon

Compound	TGI (RXF 393 renal) [µM]	TGI (HCC-2998 colon) [µM]	TGI (A549 NSCLC) [µM]	TGI (LOX IMVI melanoma) [µM]	TGI (IGROV1 ovarian) [µM]	TGI (M19-MEL melanoma) [µM]	TGI (KM20L2 colon) [µM]	TGI (DMS 114 small cell lung) [µM]	TGI (SNB-78 CNS) [µM]	TGI (DMS 273 small cell lung) [µM]	GI50 (RXF 393 renal) [µM]	TGI (LXFL 529 NSCLC) [µM]	TGI (DLD-1 colon) [µM]
CCCCCCCCCc1cc(O)c(O)cc1CCCCCCCCC	> 10	> 10	> 10	> 10	> 10	–	–	–	–	–	–	–	–
CSC1=N/C(=C\c2cccs2)C(=O)N1CN1CCOCC1	–	–	> 100	> 100	> 100	–	–	–	–	–	–	–	–
COC1/C=C/C(C)C(OC)CC(O)/C=C/C(C)C(C(C)C(OC)C(C)CCC(=O)C(C)C(C/C=C/N(C)C=O)OC)OC(=O)/C=C/C=C(\C)CC(OC)C(OC)C2=CC(=O)O[C@@H](C(C)C(OC)C1)[C@H]2O (stereo not given in full)	0.078	0.0518	0.497	0.025	–	–	–	–	–	–	–	–	–
NS(=O)(=O)c1ccc(NNC(=O)c2cccc3c(=O)c4ccccc4[nH]c23)cc1	> 100	> 100	> 100	89	> 100	–	–	–	–	–	–	–	–
CCN(CC)CCNc1ccc([N+](=O)[O-])c2nc3ccccc3c(N)c12	1.52	–	2.39	1.61	> 10	–	–	–	–	–	–	–	–
Clc1cc2nc(C3CCCO3)[nH]c2cc1Cl (stereo not given)	> 100	> 100	> 100	> 100	> 100	–	–	–	–	–	–	–	–
COC(=O)N1CC[C@@H]2CCC=C(c3cccc4c3OCO4)[C@@H]21	> 100	> 100	> 100	> 100	> 100	–	–	–	–	–	–	–	–
COc1ccc2c(c1)/C(=C(\C(Cl)=C(Cl)Cl)[N+](=O)[O-])N2	> 100	> 100	> 100	> 100	> 100	–	–	–	–	–	–	–	–
C=C1CC(OC(C)=O)/C=C(/C)CCC(C(C)(C)O)CC1O (stereo not given)	> 100	> 100	> 100	> 100	> 100	–	–	–	–	–	–	–	–
Cc1cccc2c1Oc1cc(Cl)ccc1C2NC(=O)CCN1CCCCC1 (stereo not given)	–	28.3	37.5	30.2	–	–	–	–	–	–	–	–	–
CCOC(=O)c1ccc(N=C2SC(=S)N(c3ccc(F)cc3)C2=Nc2ccc(C(=O)OCC)cc2)cc1	23.3	> 80.5	> 84.9	17.9	30.8	–	–	–	–	–	–	–	–
CCOC(=O)C(SCCO)C(C(=O)OCC)n1ccc(N)nc1=O (stereo not given)	–	> 100	> 100	> 100	> 100	–	–	–	–	–	–	–	–
CN1CCc2c(sc3nc(Nc4ccccc4)n(N)c(=O)c23)C1	> 100	–	> 100	–	> 100	–	–	–	–	–	–	–	–
NC(CCCCCP(=O)(O)O)C(=O)O (stereo not given)	> 100	> 100	> 100	> 100	> 100	–	–	–	–	–	–	–	–
Cc1c2c(c(C)c3c[n+](C)ccc13)Oc1ccccc1O2	> 100	19.8	> 100	> 71.1	50	–	–	–	–	–	–	–	–
O=C(ON=c1c2ccccc2ccc2ccccc12)c1cc([N+](=O)[O-])cc([N+](=O)[O-])c1	> 100	> 100	> 100	> 100	> 100	–	–	–	–	–	–	–	–
CN(C)C(=S)Nc1nnc(NC23CC4CC(CC(C4)C2)C3)s1	34.1	35.5	36.5	33.8	72.8	43.6	24.8	63.1	> 100	55.3	–	–	–

Compound	TGI (RXF 393 renal) [µM]	TGI (HCC-2998 colon) [µM]	TGI (A549 NSCLC) [µM]	TGI (LOX IMVI melanoma) [µM]	TGI (IGROV1 ovarian) [µM]	TGI (M19-MEL melanoma) [µM]	TGI (KM20L2 colon) [µM]	TGI (DMS 114 small cell lung) [µM]	TGI (SNB-78 CNS) [µM]	TGI (DMS 273 small cell lung) [µM]	GI50 (RXF 393 renal) [µM]	TGI (LXFL 529 NSCLC) [µM]	TGI (DLD-1 colon) [µM]
CCOC(=O)C(Cc1ccc2c(c1)CCC2)(Cc1ccc2c(c1)CCC2)C(=O)OCC	89.9	> 100	> 100	> 100	> 100	–	–	–	–	–	–	–	–
C=C1C(=O)OC2/C=C(\C)CC/C=C(/C)CC(OC(=O)/C(=C/CO)CO)C12 (stereo not given)	23.7	41.3	> 100	81.5	> 100	–	–	–	–	–	–	–	–
COc1ccc(C2CCc3nc4nc(N)nc(N)c4cc3C2)cc1 (stereo not given)	37.2	> 100	> 100	30	37.9	–	–	–	–	–	–	–	–
NNC(N)=Nc1cccc2ccccc12	> 100	> 100	> 100	–	> 100	–	–	–	–	–	–	–	–
O=C(CSc1nc2ccc(I)cc2c(=O)n1Cc1ccccc1)N/N=C/c1ccccc1	26.7	> 100	> 100	> 100	36.1	–	–	–	–	–	–	–	–
CSc1ccc2c(c1)c(CCN)c(C)n2Cc1ccc(Cl)c(Cl)c1	3.12	–	–	–	–	–	–	–	–	–	1.66	–	–
C/C(CC(O)(C(F)(F)F)C(F)(F)F)=N\N	> 10	> 10	> 10	> 10	> 10	–	–	–	–	–	–	–	–
Oc1c(C(O)(c2ccccc2)c2ccc3ccccc3c2O)ccc2ccccc12	25.3	20	30.4	31.3	24.7	–	–	–	–	–	–	–	–
O=C1C(NS(=O)(=O)c2ccccc2)=C(n2cnc3ccccc32)C(=O)c2ccccc21	98.2	> 100	> 100	> 100	> 100	–	–	–	–	–	–	–	–
COc1cc(N=C(N)N=C(N)N)c2ncccc2c1	> 100	> 100	> 100	> 100	> 100	–	–	–	–	–	–	–	–
O=C(NC(=O)c1cn(CCN2CCNCC2)c(=O)[nH]c1=O)OCc1ccccc1	–	–	> 100	> 100	–	> 100	–	> 100	> 100	–	–	> 100	> 100
O=C(CC(=O)c1ccncc1)c1ccccc1	> 100	> 100	> 100	> 100	> 100	–	–	–	–	–	–	–	–
CCCCCCc1nn2c(-c3ccc(C)cc3)nnc2s1	> 100	–	> 100	–	–	–	–	–	–	–	–	–	–
CC(C)OP(=O)(OC(C)C)C(C(F)(F)F)C(F)(F)F	> 100	> 100	> 100	> 100	> 100	–	–	–	–	–	–	–	–
CC(=O)OCC1C(C(C)OC(C)=O)CCC2C1CCC1(C)C(OC(C)=O)CCC21 (stereo not given)	–	33.5	39.4	27.9	42.1	–	–	–	–	–	–	–	–
CN1CN(c2ccccc2)C2(CCNCC2)C1=O	> 100	> 100	> 100	> 100	> 100	–	–	–	–	–	–	–	–
